The record followed here is patent US9790229B2, “Bruton's tyrosine kinase inhibitors” (priority 2009, dated 2017).

BTK, sequence (Q06187 whole entry): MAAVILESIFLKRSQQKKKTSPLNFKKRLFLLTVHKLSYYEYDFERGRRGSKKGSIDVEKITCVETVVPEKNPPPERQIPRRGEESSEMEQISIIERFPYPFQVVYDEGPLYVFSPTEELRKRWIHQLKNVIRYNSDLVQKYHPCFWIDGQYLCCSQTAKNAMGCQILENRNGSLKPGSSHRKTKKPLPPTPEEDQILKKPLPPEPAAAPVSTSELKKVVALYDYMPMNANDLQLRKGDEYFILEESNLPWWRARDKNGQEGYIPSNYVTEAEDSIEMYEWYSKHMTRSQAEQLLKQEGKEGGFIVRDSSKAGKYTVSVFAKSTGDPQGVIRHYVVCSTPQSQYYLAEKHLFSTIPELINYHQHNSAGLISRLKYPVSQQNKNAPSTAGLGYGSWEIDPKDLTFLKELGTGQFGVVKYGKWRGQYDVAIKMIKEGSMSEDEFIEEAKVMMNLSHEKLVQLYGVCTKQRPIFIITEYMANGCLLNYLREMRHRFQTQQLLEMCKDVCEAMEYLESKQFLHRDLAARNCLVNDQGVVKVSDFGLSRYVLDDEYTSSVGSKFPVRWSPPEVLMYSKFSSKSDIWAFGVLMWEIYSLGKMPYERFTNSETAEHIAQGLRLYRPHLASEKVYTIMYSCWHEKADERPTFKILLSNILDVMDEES

One test addresses BTK (Homo sapiens (Human), UniProt Q06187). Description: In vitro BTK kinase assay: BTK-POLYGAT-LS ASSAY.
Settings: not given
`CC(C)c1ccccc1NC(=O)Nc1cccc(C2CN(c3ncnc4[nH]ccc34)CCN2CCO)c1` (centres unmarked) [compound 133, 1-(3-(1-(2-hydroxyethyl)-4-(7H-pyrrolo[2,3-d]pyrimidin-4-yl)piperazin-2-yl)phenyl)-3-(2-isopropylphenyl)urea]: the IC50 (in general, the concentration needed to halve the response being measured) lay in the range of 100 to 999 nM.
`O=C(Nc1cccc(C2CCCN(c3ncnc4[nH]ccc34)C2)c1)N1CCCCC1` (centres unmarked) [Cmpd 53, N-(3-(1-(7H-pyrrolo[2,3-d]pyrimidin-4-yl)piperidin-3-yl)phenyl)piperidine-1-carboxamide] came in with an IC50 of 1000 to 10000 nM.
The compound `Cc1ccnc(Cl)c1NC(=O)Nc1cccc(C2CCCN(c3ncnc4[nH]ccc34)C2)c1` (centres unmarked) [compound 190] returned an IC50 of 1000 to 10000 nM.
Compound `CCNc1ncnc(N2CCC[C@@H](N3CCCC(Nc4cc(F)cc(Cl)c4)C3=O)C2)c1F` (stereo partly drawn) [compound 287, (3′R)-3-(3-Chloro-5-fluorophenylamino)-1′-(6-(ethylamino)-5-fluoropyrimidin-4-yl)-1,3′-bipiperidin-2-one] yielded an IC50 of 1000 to 10000 nM.
`O=C(Nc1cccc(C2CCCN(c3ncnc4[nH]ccc34)C2)c1)Nc1ccccc1OC(F)F` (centres unmarked) [compound 191] had an IC50 of 1000 to 10000 nM.
For the compound `O=C(Nc1cccc(C2CCCN(c3ncnc4[nH]ccc34)C2)c1)Nc1ccccc1N1CCOCC1` (centres unmarked) [compound 165], the IC50 was 100 to 999 nM.
For `CC(C)(C)c1ccccc1NC(=O)Nc1cccc(C2CCCN(c3ncnc4[nH]ccc34)C2)c1` (centres unmarked) [compound 167], the IC50 lay within 100 to 999 nM.
As to `O=C(Nc1cccc(F)c1)Nc1cccc(C2CCCN(c3ncnc4[nH]ccc34)C2)c1` (centres unmarked) [compound 183], the IC50 lay within 1000 to 10000 nM.
`O=C(Nc1cccc(C2CCCN(c3ncnc4[nH]ccc34)C2)c1)Nc1c(F)cccc1N1CCCC1=O` (centres unmarked) [Cmpd 51, 1-(3-(1-(7H-pyrrolo[2,3-d]pyrimidin-4-yl)piperidin-3-yl)phenyl)-3-(2-fluoro-6-(2-oxopyrrolidin-1-yl)phenyl)urea] came in with an IC50 of 1000 to 10000 nM.
In the case of `O=C(Nc1cccc(C2CCCN(c3ncnc4[nH]ccc34)C2)c1)[C@@H](O)c1ccccc1` (stereo partly drawn) [Cmpd 18, (2S)—N-(3-(1-(7H-pyrrolo[2,3-d]pyrimidin-4-yl)piperidin-3-yl)phenyl)-2-hydroxy-2-phenylacetamide], the IC50 fell in the range of 1000 to 10000 nM.
Turning to `O=C(Nc1cccc(C2CCCN(c3ncnc4[nH]ccc34)C2)c1)Nc1ccccc1-n1ccnc1` (centres unmarked) [Cmpd 35, 1-(2-(1H-imidazol-1-yl)phenyl)-3-(3-(1-(7H-pyrrolo[2,3-d]pyrimidin-4-yl)piperidin-3-yl)phenyl)urea], the IC50 lay in the range of 1000 to 10000 nM.
`O=C(NC[C@H]1CCCC[C@H]1O)Nc1cccc(C2CCCN(c3ncnc4[nH]ccc34)C2)c1` (some centres unmarked) [compound 218] gave an IC50 of 1000 to 10000 nM.
The same measure, in the same setting: as for `Nc1ncnc(N2CCCC(c3cccc(NC(=O)Nc4ccccc4)c3)C2)c1CCC(=O)O` (centres unmarked) [compound 206], the figure is 1000 to 10000 nM; as for `O=C(Nc1cccc(C2CCCN(c3ncnc4[nH]ccc34)C2)c1)Nc1cccc2cc[nH]c12` (centres unmarked) [compound 211], 1000 to 10000 nM.
`Cc1cc(NC(=O)Nc2cccc(C3CCCN(c4ncnc5[nH]ccc45)C3)c2)no1` (centres unmarked) [Cmpd 57, 1-(3-(1-(7H-pyrrolo[2,3-d]pyrimidin-4-yl)piperidin-3-yl)phenyl)-3-(5-methylisoxazol-3-yl)urea] had a half-inhibitory concentration (IC50) of 1000 to 10000 nM.
Still for that read-out and setting: as for `Nc1ncnc(N2CCC[C@@H](N3CCCC(Nc4ccccc4C(=O)O)C3=O)C2)c1F` (stereo partly drawn) [compound 297, 2-((3′R)-1′-(6-Amino-5-fluoropyrimidin-4-yl)-2-oxo-1,3′-bipiperidin-3-ylamino)benzoic acid], the figure is 1000 to 10000 nM.
With `O=C(Nc1cc(C2CCCN(c3ncnc4[nH]ccc34)C2)ccc1OC(F)(F)F)c1c(F)cccc1Cl` (centres unmarked) [Cmpd 90, N-(5-(1-(7H-pyrrolo[2,3-d]pyrimidin-4-yl)piperidin-3-yl)-2-(trifluoromethoxy)phenyl)-2-chloro-6-fluorobenzamide], the IC50 is 100 to 999 nM.
The same measure, in the same setting: the figure for `O=C1Cc2c(ncnc2N2CCCC(c3cccc(NC(=O)Nc4ccccc4)c3)C2)N1` (centres unmarked) [Cmpd 96, 1-(3-(1-(6-oxo-6,7-dihydro-5H-pyrrolo[2,3-d]pyrimidin-4-yl)piperidin-3-yl)phenyl)-3-phenylurea] is 1000 to 10000 nM; for `COc1cccc(NC(=O)Nc2cccc(C3CCCN(c4ncnc5[nH]ccc45)C3)c2)c1` (centres unmarked) [compound 187] it is 1000 to 10000 nM; for `C[C@@H](NC(=O)Nc1cccc(C2CCCN(c3ncnc4[nH]ccc34)C2)c1)C1CCCCC1` (stereo partly drawn) [Cmpd 44, 1-(3-(1-(7H-pyrrolo[2,3-d]pyrimidin-4-yl)piperidin-3-yl)phenyl)-3-((R)-1-cyclohexylethyl)urea] it is 1000 to 10000 nM.

The test is the same for the next values; noted with them: read-out: IC50 (10 uM ATP); 10 uM ATP; in vitro Btk kinase assay, Example 41.
Take `O=C(Nc1cccc(C2CCCN(c3ncnc4[nH]ccc34)C2)c1)Nc1ccccc1N1C[C@@H](O)[C@@H](O)C1` (some centres unmarked) [compound 148]: the IC50 was less than 100 nM.
As to `Cc1cc(NC(=O)Nc2cccc(C3CCCN(c4ncnc5[nH]ccc45)C3)c2)n(CCN(C)C)n1` (centres unmarked) [compound 230], the IC50 was greater than 10000 nM.
As for `CCOC(=O)CCc1c(N)ncnc1N1CCCC(c2cccc(NC(=O)Nc3ccccc3)c2)C1` (centres unmarked) [compound 253], the IC50 was greater than 10000 nM.
Turning to `N#Cc1ccccc1NC(=O)Nc1cccc(C2CCCN(c3ncnc4[nH]ccc34)C2)c1` (centres unmarked) [Cmpd 65, 1-(3-(1-(7H-pyrrolo[2,3-d]pyrimidin-4-yl)piperidin-3-yl)phenyl)-3-(2-cyanophenyl)urea], the IC50 is greater than 10000 nM.
`Nc1ncnc(N2CCC[C@@H](N3CCCC(Nc4ccccc4S(=O)(=O)c4ccccc4)C3=O)C2)c1F` (stereo in doubt) [compound 319, 1′-(6-Amino-5-fluoropyrimidin-4-yl)-3-(2-(phenylsulfonyl)phenylamino)-1,3′-bipiperidin-2-one]: the IC50 was less than 100 nM.
As for `O=C(NCC1CCCNC1)Nc1cccc(C2CCCN(c3ncnc4[nH]ccc34)C2)c1` (centres unmarked) [compound 229], the IC50 is greater than 10000 nM.
On the same count and under the same terms, the figure for `O=C(Nc1cccc(C2CCCN(c3ncnc4[nH]ccc34)C2)c1)c1c(Cl)cccc1Cl` (centres unmarked) [Cmpd 10, N-(3-(1-(7H-pyrrolo[2,3-d]pyrimidin-4-yl)piperidin-3-yl)phenyl)-2,6-dichlorobenzamide] is greater than 10000 nM.
In the case of `O=C1C(Nc2cc(Cl)cc(C(F)(F)F)c2)CCCN1[C@@H]1CCCN(c2ncnc3[nH]ncc23)C1` (stereo partly drawn) [compound 305, (3′R)-3-(3-Chloro-5-(trifluoromethyl)phenylamino)-1′-(1H-pyrazolo[3,4-d]pyrimidin-4-yl)-1,3′-bipiperidin-2-one], the IC50 was less than 100 nM.
The same measure, in the same setting: the figure for `CNc1cc(N2CCCC(c3cccc(NC(=O)Nc4ccccc4)c3)C2)ncn1` (centres unmarked) [Cmpd 95, 1-(3-(1-(6-(methylamino)pyrimidin-4-yl)piperidin-3-yl)phenyl)-3-phenylurea] is greater than 10000 nM; for `O=C(Nc1cccc(C2CCCN(c3ncnc4[nH]ccc34)C2)c1)Nc1ccncc1Cl` (centres unmarked) [compound 222] it is greater than 10000 nM; for `CC(C)(C)Nc1c(Nc2cccc(C3CCCN(c4ncnc5[nH]ccc45)C3)c2)c(=O)c1=O` (centres unmarked) [Cmpd 73, 3-(3-(1-(7H-pyrrolo[2,3-d]pyrimidin-4-yl)piperidin-3-yl)phenylamino)-4-(tert-butylamino)cyclobut-3-ene-1,2-dione] it is greater than 10000 nM.
Take `O=C(Nc1cccc(C2CCCN(c3ncnc4[nH]ccc34)C2)c1)Nc1cccc2[nH]ncc12` (centres unmarked) [compound 226]: the IC50 was greater than 10000 nM.
Regarding `Nc1ncnc(N2CCC[C@@H](N3CCCC(Nc4cc(F)cc(Cl)c4)C3=O)C2)c1F` (stereo in doubt) [compound 314, (3S,3′R)-1′-(6-Amino-5-fluoropyrimidin-4-yl)-3-(3-chloro-5-fluorophenylamino)-1,3′-bipiperidin-2-one], the IC50 is less than 100 nM.
In the case of `O=C(Nc1ccccc1)N[C@H]1CCN(C2CCCN(c3ncnc4[nH]ccc34)C2)C1` (some centres unmarked) [compound 256], the IC50 was greater than 10000 nM.
As to `FC(F)(F)c1ccc(Nc2cccc(C3CCCN(c4ncnc5[nH]ccc45)C3)c2)nc1` (centres unmarked) [compound 142, N-(3-(1-(7H-pyrrolo[2,3-d]pyrimidin-4-yl)piperidin-3-yl)phenyl)-5-(trifluoromethyl)pyridin-2-amine], the IC50 is greater than 10000 nM.
On the same count and under the same terms, as for `N#Cc1cnc2[nH]ccc2c1N1CCC[C@@H](N2CCCC(Nc3cc(F)cc(Cl)c3)C2=O)C1` (stereo partly drawn) [compound 285, 4-((3′R)-3-(3-Chloro-5-fluorophenylamino)-2-oxo-1,3′-bipiperidin-1′-yl)-1H-pyrrolo[2,3-b]pyridine-5-carbonitrile], the figure is less than 100 nM.
As to `O=C(Nc1cccc(C2CN(c3ncnc4[nH]ccc34)CCN2CCO)c1)Nc1c(F)cccc1N1CCCC1` (centres unmarked) [compound 135, 1-(2-Fluoro-6-(pyrrolidin-1-yl)phenyl)-3-(3-(1-(2-hydroxyethyl)-4-(7H-pyrrolo[2,3-d]pyrimidin-4-yl)piperazin-2-yl)phenyl)urea], the IC50 was less than 100 nM.
On to `Nc1ncnc(N2C[C@@H](F)C[C@@H](N3CCCC(Nc4cc(F)cc(Cl)c4)C3=O)C2)c1F` (stereo partly drawn) [compound 279, (3′R, 5′S)-1′-(6-Amino-5-fluoropyrimidin-4-yl)-3-(3-chloro-5-fluorophenylamino)-5′-fluoro-1,3′-bipiperidin-2-one], for which the IC50 is less than 100 nM.
On the same count and under the same terms, the figure for `CN1CCC(O)(CNC(=O)Nc2cccc(C3CCCN(c4ncnc5[nH]ccc45)C3)c2)CC1` (centres unmarked) [compound 235] is greater than 10000 nM; for `Nc1ncnc(N2CC[C@H](C(F)(F)F)[C@@H](N3CCCC(Nc4cc(Cl)cc(Cl)c4)C3=O)C2)c1F` (stereo partly drawn) [compound 334, trans 1′-(6-Amino-5-fluoropyrimidin-4-yl)-3-(3,5-dichlorophenylamino)-4′-(trifluoromethyl)-1,3′-bipiperidin-2-one] it is less than 100 nM; for `CC(=O)N1CCCC(CNC(=O)Nc2cccc(C3CCCN(c4ncnc5[nH]ccc45)C3)c2)C1` (centres unmarked) [compound 240] it is greater than 10000 nM.
Still for that read-out and setting: as for `CCOC(=O)/C=C/c1c(N)ncnc1N1CCCC(c2cccc(NC(=O)Nc3ccccc3)c2)C1` (centres unmarked) [compound 221], the figure is greater than 10000 nM; as for `O=C(Nc1cccc(C2CCCN(c3ncnc4[nH]ccc34)C2)c1)NC1CCCNC1` (centres unmarked) [compound 232], greater than 10000 nM; as for `Nc1ncnc(N2CCC[C@@H](N3CCCC(Nc4cc(Cl)cc(Cl)c4)C3=O)C2)c1F` (stereo partly drawn) [compound 278, (3′R)-1′-(6-amino-5-fluoropyrimidin-4-yl)-3-(3,5-dichlorophenylamino)-1,3′-bipiperidin-2-one], less than 100 nM.
